Assay results reported in patent US20150353495A1 (PORTOLA PHARMACEUTICALS, INC., priority 2010, published 2015).

Tests used:
Type in all cases: biochemical
JAK3 = molecular target: T1, JAK3 (Homo sapiens, UniProt P52333); assay: Z'-LYTE kinase assay JAK3
T1 construct: 5 μl of catalytic domain recombinant Kinase enzyme+Tyr peptide substrate (Invitrogen, CA); purchased Invitrogen
Description: (§1) JAK and TYK2 tyrosine phosphorylation activity is measured using the Z′-LYTE™ Technology developed by Invitrogen Corporation (Carlsbad, Calif.). For JAK1, JAK2 and JAK3 the Z′-LYTE™ Kinase Assay Kit-Tyr6 Peptide (part number PV4122) was used. For TYK2 the Z′-LYTE™ Kinase Assay Kit-Tyr6 Peptide (part number PV3192) was used. The Z′-LYTE™ biochemical assay employs a fluorescence resonance energy transfer (FRET) coupled-enzyme format and is based on the differential sensitivity of phosphorylated and non-phosphorylated peptides to proteolitic cleavage. The assay uses a synthetic peptide substrate that is labelled with a donor fluorophore (coumarin) and an acceptor fluorophore (fluorescein) that make up a FRET pair. In the primary reaction (the Kinase Reaction), the kinase transfers the γ-phosphate of ATP to a single tyrosine residue on the substrate, while the presence of a kinase inhibitor in the primary reaction suppresses phosphorylation. In the secondary reaction (the Development Reaction), a site-specific protease (the Development Reagent) is added. The development buffer quenches the Kinase Reaction, while the protease recognizes and cleaves non-phosphorylated Z′-LYTE™ peptide substrate. Cleavage disrupts FRET between the donor and acceptor fluorophores on the non-phosphoryleted substrate, while uncleaved, phosphorylated substrate maintains FRET.
(§2) To test the ability of candidate molecules to inhibit JAK tyrosine phosphorylation activity, molecules are reconstituted in 100% DMSO and serially diluted 1:10 in polypropylene v-bottom microtiter plates. The candidate molecules are then diluted 1:25 into kinase buffer and 2.5 μl transferred into duplicate wells of a 384 well low volume black microtiter assay plate (Corning, USA). The final DMSO concentration in the assay is 1%. The kinase reaction contains 2.5 μl of a candidate molecule, 5 μl of catalytic domain recombinant Kinase enzyme+Tyr peptide substrate (Invitrogen, CA) and 2.5 μl ATP (Invitrogen, CA). The kinase reaction is allowed to procede for 1 hour at room temperature. The protease reaction is initiated by the addition of 5 μl Development Reagent (Invitrogen, CA). After 1 hour incubation at room temperature the fluorescence is measured using a FlexStation plate reader (Molecular Devices, Sunnyvale, Calif.).

JAK2 = molecular target: T2, JAK2 (Homo sapiens, UniProt O60674); assay: Z'-LYTE kinase assay JAK2
T2 construct: 5 μl of catalytic domain recombinant Kinase enzyme+Tyr peptide substrate (Invitrogen, CA); purchased Invitrogen
Description: as §1, §2

JAK1 = molecular target: T3, JAK1 (Homo sapiens, UniProt P23458); assay: Z'-LYTE kinase assay JAK1
T3 construct: 5 μl of catalytic domain recombinant Kinase enzyme+Tyr peptide substrate (Invitrogen, CA); purchased Invitrogen
Description: as §1, §2

T3 sequence (P23458 875-1153 limits assumed): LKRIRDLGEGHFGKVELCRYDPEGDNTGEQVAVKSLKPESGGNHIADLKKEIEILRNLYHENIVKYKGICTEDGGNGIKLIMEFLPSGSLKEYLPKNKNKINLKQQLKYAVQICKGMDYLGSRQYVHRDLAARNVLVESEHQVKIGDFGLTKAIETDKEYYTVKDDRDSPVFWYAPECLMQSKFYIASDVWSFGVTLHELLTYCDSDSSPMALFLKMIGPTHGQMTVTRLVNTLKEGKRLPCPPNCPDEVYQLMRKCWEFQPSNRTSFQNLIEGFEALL
T2 sequence (O60674 849-1124 limits assumed): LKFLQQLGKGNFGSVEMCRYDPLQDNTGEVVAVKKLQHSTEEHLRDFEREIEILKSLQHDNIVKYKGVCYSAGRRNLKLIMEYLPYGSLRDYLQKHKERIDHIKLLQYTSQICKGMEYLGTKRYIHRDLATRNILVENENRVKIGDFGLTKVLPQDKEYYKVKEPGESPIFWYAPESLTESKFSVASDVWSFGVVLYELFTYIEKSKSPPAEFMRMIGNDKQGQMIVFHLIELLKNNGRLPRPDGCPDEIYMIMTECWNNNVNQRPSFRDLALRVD
T1 sequence (P52333 822-1111 limits assumed): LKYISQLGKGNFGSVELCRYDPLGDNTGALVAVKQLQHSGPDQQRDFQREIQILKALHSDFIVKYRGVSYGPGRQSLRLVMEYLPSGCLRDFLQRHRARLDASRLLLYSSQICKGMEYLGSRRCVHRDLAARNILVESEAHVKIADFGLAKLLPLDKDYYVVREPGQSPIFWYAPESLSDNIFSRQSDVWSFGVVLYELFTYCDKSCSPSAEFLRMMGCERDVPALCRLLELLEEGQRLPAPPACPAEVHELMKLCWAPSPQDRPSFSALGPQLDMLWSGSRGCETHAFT

SMILES | IC50 (JAK3) [nM] | IC50 (JAK2) [nM] | IC50 (JAK1) [nM]
CN(C)C(=O)C1CCN(c2ccc(Nc3cc(NCc4ccccc4)c(C(N)=O)cn3)cc2)CC1 [Example 343, 4-(benzylamino)-6-(4-(4-(dimethylcarbamoyl)piperidin-1-yl)phenylamino)nicotinamide] | 1 to 10 | 10 to 100 | 100 to 1000
COc1ccc(Nc2cc(NC[C@@H]3CCCN(C(=O)N(C)C)C3)c(C(N)=O)cn2)cc1 [Example 53, (S)-4-((1-(dimethylcarbamoyl)piperidin-3-yl)methylamino)-6-(4-methoxyphenylamino)nicotinamide] | 100 to 1000 | > 1000 | > 1000
NC(=O)c1cnc(Nc2ccc(OC(F)(F)F)cc2)cc1NCc1cncc(F)c1 [Example 310] | 100 to 1000 | > 1000 | > 1000
NC(=O)c1cnc(Nc2cccc(C3CCOCC3)c2)cc1NCc1cccc(F)c1 [Example 204, 4-(3-fluorobenzylamino)-6-(3-(tetrahydro-2H-pyran-4-yl)phenylamino)nicotinamide] | 1 to 10 | 10 to 100 | 100 to 1000
NC(=O)c1cnc(Nc2ccc(N3CCN(c4ccccn4)CC3)cc2)cc1NCc1cccc2[nH]ccc12 [Example 402] | 1 to 10 | 10 to 100 | 10 to 100
CN(C)C(=O)c1ccc(Nc2cc(NCc3ccncn3)c(C(N)=O)cn2)cc1 [Example 299, 6-(4-(dimethylcarbamoyl)phenylamino)-4-(pyrimidin-4-ylmethylamino)nicotinamide] | > 1000 | > 1000 | > 1000
CN(C)S(=O)(=O)NCc1ccc(Nc2cc(NCc3cccc4ccsc34)c(C(N)=O)cn2)cc1 [Example 355, 4-(benzo[b]thiophen-7-ylmethylamino)-6-(4-((N,N-dimethylsulfamoylamino)methyl)phenylamino)nicotinamide] | 1 to 10 | 100 to 1000 | 100 to 1000
CC(=O)Nc1cccc(Nc2cc(NC3(c4ccccc4)CC3)c(C(N)=O)cn2)c1 [Example 135, 6-(3-acetamidophenylamino)-4-(1-phenylcyclopropylamino)nicotinamide] | 100 to 1000 | > 1000 | > 1000
CC(=O)NCc1ccc(Nc2cc(NCc3cccc4ccsc34)c(C(N)=O)cn2)cc1 [Example 352, 6-(4-(acetamidomethyl)phenylamino)-4-(benzo[b]thiophen-7-ylmethylamino)nicotinamide] | 1 to 10 | 10 to 100 | 10 to 100
CCC(=O)N1CCC(Nc2cc(Nc3ccc(C4CCOCC4)cc3)ncc2C(N)=O)CC1 [Example 164, 4-(1-propionylpiperidin-4-ylamino)-6-(4-(tetrahydro-2H-pyran-4-yl)phenylamino)nicotinamide] | > 1000 | > 1000 | > 1000
CN(C(=O)C1CC1)c1ccc(Nc2cc(NCc3cccc4ccsc34)c(C(N)=O)cn2)cc1 [Example 467, 4-(benzo[b]thiophen-7-ylmethylamino)-6-(4-(N-methylcyclopropanecarboxamido)phenylamino)nicotinamide] | 10 to 100 | 100 to 1000 | 100 to 1000
NC(=O)c1cnc(Nc2cccc(C3CCOCC3)c2)cc1NCc1cc(F)ccc1F [Example 207, 4-(2,5-difluorobenzylamino)-6-(3-(tetrahydro-2H-pyran-4-yl)phenylamino)nicotinamide] | 1 to 10 | 10 to 100 | 100 to 1000
CCC(=O)N1CC(c2ccc(Nc3cc(NCc4cccc(F)n4)c(C(N)=O)cn3)cc2)C1 [Example 490, 4-((6-fluoropyridin-2-yl)methylamino)-6-(4-(1-propionylazetidin-3-yl)phenylamino)nicotinamide] | 10 to 100 | 100 to 1000 | 100 to 1000
CS(=O)(=O)c1ccc(Nc2cc(NCc3cccc(-c4ccncc4)c3)c(C(N)=O)cn2)cc1 [Example 413, 6-(4-(methylsulfonyl)phenylamino)-4-(3-(pyridine-4-yl)benzylamino)nicotinamide] | 10 to 100 | > 1000 | > 1000
CC(=O)N1CCC[C@H](CNc2cc(Nc3ccc(C(=O)N(C)C)c(C(F)(F)F)c3)ncc2C(N)=O)C1 [Example 274, (R)-4-((1-acetylpiperidin-3-yl)methylamino)-6-(4-(dimethylcarbamoyl)-3-(trifluoromethyl)phenylamino)nicotinamide] | 100 to 1000 | > 1000 | > 1000
NC(=O)c1cnc(Nc2ccc(C(F)(F)F)cc2)cc1NCc1cncc(F)c1 [Example 305] | 100 to 1000 | > 1000 | > 1000
COC(=O)N(C)c1ccc(Nc2cc(NCc3cncc(F)c3)c(C(N)=O)cn2)cc1 [Example 479] | 10 to 100 | 100 to 1000 | 100 to 1000
CN(C)C(=O)c1ccc(Nc2cc(NCc3cncc(F)c3)c(C(N)=O)cn2)cc1 [Example 312, 6-(4-(dimethylcarbamoyl)phenylamino)-4-((5-fluoropyridin-3-yl)methylamino)nicotinamide] | 1 to 10 | 100 to 1000 | 100 to 1000
CN(C)C(=O)C1CN(c2ccc(Nc3cc(NCc4cccc5ccsc45)c(C(N)=O)cn3)cc2F)C1 [Example 349, 4-(benzo[b]thiophen-7-ylmethylamino)-6-(4-(3-(dimethylcarbamoyl)azetidin-1-yl)-3-fluorophenylamino)nicotinamide] | 1 to 10 | 10 to 100 | 100 to 1000
CC(=O)N(C)c1ccc(Nc2cc(NC3(c4ccccc4)CC3)c(C(N)=O)cn2)cc1 [Example 361, 6-(4-(N-methylacetamido)phenylamino)-4-(1-phenylcyclopropylamino)nicotinamide] | 100 to 1000 | > 1000 | > 1000
COc1ccc(Nc2cc(NCc3cncc(F)c3)c(C(N)=O)cn2)cc1 [Example 296, 4-((5-fluoropyridin-3-yl)methylamino)-6-(4-methoxyphenylamino)nicotinamide] | 10 to 100 | 100 to 1000 | 100 to 1000
CC(=O)N1CCN(c2cccc(Nc3cc(NC4(c5ccccc5)CC4)c(C(N)=O)cn3)c2)CC1 [Example 371, 6-(3-(4-acetylpiperazin-1-yl)phenylamino)-4-(1-phenylcyclopropylamino)nicotinamide] | 10 to 100 | 100 to 1000 | > 1000
CN(C)C(=O)c1ccc(Nc2cc(NCc3ccccc3)c(C(N)=O)cn2)cc1F [Example 273, 4-(benzylamino)-6-(4-(dimethylcarbamoyl)-3-fluorophenylamino)nicotinamide] | 10 to 100 | 100 to 1000 | > 1000
NC(=O)c1cnc(Nc2ccc(CC(=O)N3CCOCC3)cc2)cc1NCc1ccccc1 [Example 330, 4-(benzylamino)-6-(4-(2-morpholino-2-oxoethyl)phenylamino)nicotinamide] | 1 to 10 | 100 to 1000 | 100 to 1000
COc1ccc(Nc2cc(NCc3ccccc3)c(C(N)=O)cn2)cc1OC [Example 293, 4-(benzylamino)-6-(3,4-dimethoxyphenylamino)nicotinamide] | 10 to 100 | 100 to 1000 | 100 to 1000
NC(=O)c1cnc(Nc2cccc(C3CCOCC3)c2)cc1NCc1cncc(F)c1 [Example 208, 4-((5-fluoropyridin-3-yl)methylamino)-6-(3-(tetrahydro-2H-pyran-4-yl)phenylamino)nicotinamide] | 1 to 10 | 10 to 100 | 100 to 1000
COc1ccc(Nc2cc(N[C@@H]3CCCN(C(C)=O)C3)c(C(N)=O)cn2)cc1 [Example 37, (R)-4-(1-acetylpiperidin-3-ylamino)-6-(4-methoxyphenylamino)nicotinamide] | > 1000 | > 1000 | > 1000
CN(C(=O)C1CC1)c1ccc(Nc2cc(NCc3cncc(F)c3)c(C(N)=O)cn2)cc1 [Example 481, 4-((5-fluoropyridin-3-yl)methylamino)-6-(4-(N-methylcyclopropanecarboxamido)phenylamino)nicotinamide] | 10 to 100 | 100 to 1000 | 100 to 1000
N#CCN1CCC(c2ccc(Nc3cc(NCc4cc(F)ccc4F)c(C(N)=O)cn3)cc2)CC1 [Example 218, 6-(4-(1-(cyanomethyl)piperidin-4-yl)phenylamino)-4-(2,5-difluorobenzylamino)nicotinamide] | 1 to 10 | 10 to 100 | 100 to 1000
